From patent US20120220665A1, “Inhibiting Neurotransmitter Reuptake” (MAYO FOUNDATION FOR MEDICAL EDUCATION AND RESEARCH, priority 2009, published 2012) come the findings set out here.

One may read the Kd as the equilibrium constant for the complex coming apart.

Each structure is given as a SMILES string.

In test [1] the target is T1, human dopamine transporter (hDAT) (Homo sapiens, UniProt Q01959).
T1 construct: expressed in transfected cells; host or cells: HEK-293, stably transfected; membranes
Kind of test: Human transporter radioligand binding, hDAT ([3H]WIN35428, HEK-293 membranes). Conditions: HCl salts of test compounds; n ≥ 3, values marked b n = 1; read-out: Equilibrium Dissociation Constant (KD) for Transporter Binding (Geometric Mean; nM ± SEM) hDAT (D). As for the experimental part:
(§1) HEK-293 cells expressing the recombinant hSERT or hDAT were incubated with Dulbecco's modified Eagles medium (MEM) supplemented with 0.1 mM nonessential amino acid solution for MEM, 5% v/v fetal bovine serum and […] penicillin/streptomycin solution. Cells expressing the hNET transporter were incubated with Dulbecco's modified Eagles medium supplemented with 10% v/v fetal bovine serum and 100 U/mL penicillin/streptomycin solution and 2 mM L-glutamine. All cells were grown until 70-80% confluent on 175 cm^2 flasks in a humidified 10% CO2/90% air environment at 37° C., with the selecting antibiotic Geneticin sulfate at […]. The cells were incubated in 10% CO2, 90% air at 37° C. and 100% humidity.
(§2) Cell membranes containing hSERT, hNET, or hDAT were prepared from the cell lines to assay ligand binding for each of the transporters. […] The washed cells were incubated for 5 minutes at 37° C. in 10 mL solution 1 containing 100 mM ethylene glycol-bis N,N,N′,N′-tetraacetic acid (EGTA). The cells were then scraped from the flask surface with a rubber spatula, placed into a centrifuge tube, and collected by centrifugation at 1000×g for 5 minutes at 4° C. The resulting supernatant was discarded, and the cell pellet was resuspended in 0.5 to1.0 mL of the appropriate binding buffer (described below). The resuspended cell pellet was homogenized using a Polytron for 10 seconds at setting 6. The resulting homogenate was centrifuged at about 36,000×g for 10 minutes at 4° C. The supernatant was discarded, and the pellet was resuspended in the same volume of the appropriate binding buffer and centrifuged again. The supernatant was discarded, and the final pellet containing cell membranes was resuspended in the appropriate binding buffer and stored at −80° C. until use.
To assess binding to the cloned hDAT, cells expressing hDAT were homogenized in 50 mM Tris-HCl with 120 mM NaCl (pH 7.4). The binding reaction contained 15 μg cell membrane protein, 1 nM [^3H]WIN35428 (WIN35428, [N-methyl-^3H], specific activity 85.9 Ci/mmol; PerkinElmer, Boston, Mass.), and varying concentrations of either unlabeled WIN35428 or the test compound. A reaction to determine non-specific binding contained 15 μg cell membrane protein, 1 nM [^3H]WIN35428, and 10 μM final concentration of unlabeled WIN35428. The reactions were incubated at 22° C. for 1 hour. Following incubation, the reactions were terminated by rapid filtration through separate GF/B filter strips pretreated with 0.2% polyethylenimine in a 48-well Brandel cell harvester. The cell membrane-containing filter strips were then rinsed five times with ice-cold 0.9% NaCl. After rinsing, individual filters were cut from the strip and placed in a scintillation vial containing 6.5 mL of Redi-Safe (Beckman-Coulter, Fullerton, Calif.). Radioactivity was measured with a Beckman liquid scintillation counter (LS 6000TA).
(§3) Following the radioligand binding assays, the data were analyzed using the
(§4) The program was modified to calculate the Hill coefficient (nH). Data are presented as geometric mean±S.E.M. of at least three independent experiments. One-component models and two-component models were compared using the root mean square error of each fit and the F test.

Test [2] addresses T2, human serotonin transporter (hSERT) (Homo sapiens, UniProt P31645).
T2 construct: expressed in transfected cells; host or cells: HEK-293, stably transfected; membranes
Kind of test: Human transporter radioligand binding, hSERT ([3H]citalopram, HEK-293 membranes). The note with it: HCl salts of test compounds; n ≥ 3, values marked b n = 1; read-out: Equilibrium Dissociation Constant (KD) for Transporter Binding (Geometric Mean; nM ± SEM) hSERT (S). As for the experimental part:
as §1, §2
(§5) Radioligand binding assays for the indicated transporters were performed as follows. To assess binding to the cloned hSERT, cells expressing hSERT were homogenized in 50 mM Tris-HCl with 120 mM NaCl and 5 mM KCl (pH 7.4). The binding reaction consisted of 10 μg cell membrane protein, 1.0 nM [^3H]citalopram (citalopram, [N-methyl-^3H], specific activity 79.0 Ci/mmol; PerkinElmer, Boston, Mass.), and varying concentrations of either unlabeled citalopram or the test compound. A reaction to determine non-specific binding consisted of 10 μg cell membrane protein, 0.5 nM [^3H]citalopram, and 1 μM final concentration of unlabeled citalopram. The reactions were incubated at 22° C. for 60 minutes. Following incubation, the reactions were terminated by rapid filtration through separate GF/B filter strips pretreated with 0.2% polyethylenimine in a 48-well Brandel cell harvester. The cell membrane-containing filter strips were then rinsed five times with ice-cold 0.9% NaCl. After rinsing, individual filters were cut from the strip and placed in a scintillation vial containing 6.5 mL of Redi-Safe (Beckman-Coulter, Fullerton, Calif.). Radioactivity was measured with a Beckman liquid scintillation counter (LS 6000TA).
as §3, §4

For test [3], the system named is hSERT (S), hNET (N), hDAT (D). Nature of the test: Comparison of binding potency across the three human transporters. Conditions: for Potency (rank order of transporter binding): S = hSERT, N = hNET, D = hDAT, order by KD; for Potency Range: highest KD / lowest KD among hSERT, hNET, hDAT. As for the experimental part:
as §1, §2, §5
(§6) To assess binding to the cloned hNET, cells expressing hNET were homogenized in 50 mM Tris-HCl with 300 mM NaCl and 5 mM KCl (pH 7.4). The binding reaction consisted of 5 μg cell membrane protein, 0.5 nM [^3H]nisoxetine (nisoxetine HCl, [N-methyl-^3H], specific activity 82.0 Ci/mmol; Amersham, Arlington Hts., Ill.), and varying concentrations of either unlabeled nisoxetine or the test compound. A reaction to determine non-specific binding consisted of 5 μg cell membrane protein, 0.5 nM [^3H]nisoxetine, and 1 μM final concentration of unlabeled nisoxetine. The reactions were incubated at 22° C. for 60 minutes. Following incubation, the reactions were terminated by rapid filtration through separate GF/B filter strips pretreated with 0.2% polyethylenimine in a 48-well Brandel cell harvester. The cell membrane-containing filter strips were then rinsed five times with ice-cold 0.9% NaCl.

The target in test [4] is T3, human norepinephrine transporter (hNET) (Homo sapiens, UniProt P23975).
T3 construct: expressed in transfected cells; host or cells: HEK-293, stably transfected; membranes
Nature of the test: Human transporter radioligand binding, hNET ([3H]nisoxetine, HEK-293 membranes). Conditions: HCl salts of test compounds; n ≥ 3, values marked b n = 1; read-out: Equilibrium Dissociation Constant (KD) for Transporter Binding (Geometric Mean; nM ± SEM) hNET (N). As for the experimental part: as §1, §2
as §6, with “NaCl. After rinsing, individual filters were cut from the strip and placed in a scintillation vial containing 6.5 mL of Redi-Safe (Beckman-Coulter, Fullerton, Calif.). Radioactivity was measured with a Beckman liquid scintillation counter (LS 6000TA).” for “NaCl.”
as §3, §4

T3 sequence (P23975 whole entry): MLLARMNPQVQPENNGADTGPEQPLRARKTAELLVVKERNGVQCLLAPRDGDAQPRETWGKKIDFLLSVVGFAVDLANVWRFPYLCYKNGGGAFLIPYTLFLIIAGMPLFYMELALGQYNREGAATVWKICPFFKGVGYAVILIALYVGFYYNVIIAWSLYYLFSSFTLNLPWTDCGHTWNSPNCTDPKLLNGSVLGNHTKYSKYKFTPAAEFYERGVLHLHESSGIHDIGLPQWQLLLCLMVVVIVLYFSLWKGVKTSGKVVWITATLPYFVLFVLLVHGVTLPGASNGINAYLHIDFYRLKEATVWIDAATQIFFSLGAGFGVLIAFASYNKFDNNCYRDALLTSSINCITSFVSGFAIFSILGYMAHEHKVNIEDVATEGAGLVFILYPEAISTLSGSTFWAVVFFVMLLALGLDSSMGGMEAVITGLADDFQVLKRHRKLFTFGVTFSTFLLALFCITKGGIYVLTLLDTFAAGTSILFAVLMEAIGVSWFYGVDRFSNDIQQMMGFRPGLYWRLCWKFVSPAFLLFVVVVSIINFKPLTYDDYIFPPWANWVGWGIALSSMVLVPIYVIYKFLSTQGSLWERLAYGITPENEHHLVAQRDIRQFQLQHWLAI
T2 sequence (P31645 whole entry): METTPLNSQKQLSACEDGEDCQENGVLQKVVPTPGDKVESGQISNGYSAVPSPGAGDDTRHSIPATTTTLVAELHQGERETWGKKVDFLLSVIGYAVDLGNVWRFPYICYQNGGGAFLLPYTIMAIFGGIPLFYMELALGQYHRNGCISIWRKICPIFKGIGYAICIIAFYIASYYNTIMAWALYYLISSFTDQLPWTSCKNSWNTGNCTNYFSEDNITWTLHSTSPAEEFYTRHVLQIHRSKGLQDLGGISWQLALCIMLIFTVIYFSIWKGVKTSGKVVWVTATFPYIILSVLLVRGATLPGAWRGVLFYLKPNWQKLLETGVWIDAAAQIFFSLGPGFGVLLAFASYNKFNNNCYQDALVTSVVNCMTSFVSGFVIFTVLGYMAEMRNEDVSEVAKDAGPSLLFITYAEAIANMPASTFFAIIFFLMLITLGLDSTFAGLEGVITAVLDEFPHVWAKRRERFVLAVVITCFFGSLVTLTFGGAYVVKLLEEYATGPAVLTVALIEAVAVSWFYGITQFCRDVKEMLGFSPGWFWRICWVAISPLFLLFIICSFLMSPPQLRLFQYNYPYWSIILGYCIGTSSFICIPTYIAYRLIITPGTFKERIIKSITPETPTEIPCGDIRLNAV
T1 sequence (Q01959 whole entry): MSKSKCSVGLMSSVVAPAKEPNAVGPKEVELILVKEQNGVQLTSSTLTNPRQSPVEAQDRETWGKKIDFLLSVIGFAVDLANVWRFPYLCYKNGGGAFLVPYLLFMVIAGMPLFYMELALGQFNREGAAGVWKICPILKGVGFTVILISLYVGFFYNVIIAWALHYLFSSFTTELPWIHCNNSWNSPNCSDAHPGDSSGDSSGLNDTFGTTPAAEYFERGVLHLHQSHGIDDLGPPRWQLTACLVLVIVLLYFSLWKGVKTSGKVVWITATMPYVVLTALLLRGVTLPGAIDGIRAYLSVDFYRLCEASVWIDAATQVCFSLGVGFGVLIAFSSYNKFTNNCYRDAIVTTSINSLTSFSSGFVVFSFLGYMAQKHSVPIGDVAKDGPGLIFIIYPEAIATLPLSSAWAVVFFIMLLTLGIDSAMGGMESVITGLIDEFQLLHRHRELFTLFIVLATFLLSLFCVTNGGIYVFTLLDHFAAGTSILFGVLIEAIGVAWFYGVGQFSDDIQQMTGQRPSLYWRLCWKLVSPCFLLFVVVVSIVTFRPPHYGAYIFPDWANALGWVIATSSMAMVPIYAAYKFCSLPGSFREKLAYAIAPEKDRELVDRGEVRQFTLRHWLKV

Consider `CN(C)C[C@H](c1ccc2ccccc2c1)[C@H](Cl)c1ccccc1` [MCJ002-Cl-SS, (2S,3S)-3-chloro-N,N-dimethyl-2-(naphthalen-2-yl)-3-phenylpropan-1-amine], for which the figures for the Kd in test [1], in test [2] and in test [4] were 270 ± 30 nM, 8.3 ± 0.9 nM and 50 ± 8 nM, respectively. In addition, the “Potency (rank order of transporter binding)” value in test [3] is on record as “S > N > D”. Moreover, the “Potency Range” value in test [3] turned out to be 32.
Turning to `CNC[C@H](c1ccccc1)[C@H](O)c1ccc(F)cc1` [MCJ001-F—Ph—OH-SS/RR, (1S,2S)-1-(4-fluorophenyl)-3-(methylamino)-2-phenylpropan-1-ol], the dissociation constant Kd is 107 nM in test [1], 1260 nM in test [2] and 514 nM in test [4]. In test [3], the “Potency (rank order of transporter binding)” value is given as “D > N > S”. Moreover, the “Potency Range” value in test [3] amounted to 12.
Regarding `CNC[C@H](c1ccc2ccccc2c1)[C@H](O)c1ccc(F)cc1` [MCJ001-4F—Ph—OH-SS/RR, (1S,2S)-1-(4-fluorophenyl)-3-(methylamino)-2-(naphthalen-2-yl)propan-1-ol], the dissociation constant Kd in test [1] is 90 ± 10 nM; in test [2] it was 33 ± 5 nM; in test [4] it was 11 ± 1 nM. For the same molecule, in test [3], the “Potency (rank order of transporter binding)” value is “N > S > D”. Also, the “Potency Range” value in test [3] worked out at 8.
On to `CNC[C@H](c1ccc2ccccc2c1)[C@@H](O)c1ccc(F)cc1` [MCJ001-4F—Ph—OH-RS/SR, (1R,2S)-1-(4-fluorophenyl)-3-(methylamino)-2-(naphthalen-2-yl)propan-1-ol], for which the figures for the equilibrium dissociation constant (Kd) in test [1], in test [2] and in test [4] were 250 ± 40 nM, 27 ± 4 nM and 49 ± 4 nM, respectively. Further, the “Potency (rank order of transporter binding)” value in test [3] is given as “S > N > D”. The “Potency Range” value in test [3] came to 9.
As for `CNCC(c1ccccc1)C(O)c1ccc(Br)cc1` [MCJ001-Br—Ph—OH-RS/SR, (1R,2S/1S,2R)-1-(4-bromophenyl)-3-(methylamino)-2-phenylpropan-1-ol], the values for the Kd in test [1], in test [2] and in test [4] were 1520 nM, 3320 nM and 4500 nM, respectively. The “Potency (rank order of transporter binding)” value in test [3] was “D > S > N”. Besides, the “Potency Range” value in test [3] is reported as 3.
Regarding `CN1Cc2c(N)cccc2C(c2ccccc2)C1` (stereo not shown) [Nomifensine, reference compound], the “Potency (rank order of transporter binding)” value in test [3] is reported as “N > D > S”.
In the case of `CN(C)C[C@H](c1ccc2ccccc2c1)[C@@H](Cl)c1ccccc1` [MCJ002-Cl-RS, (2S,3R)-3-chloro-N,N-dimethyl-2-(naphthalen-2-yl)-3-phenylpropan-1-amine], the results for the dissociation constant (Kd) in test [1], in test [2] and in test [4] were 390 ± 30 nM, 7.4 ± 0.9 nM and 90 ± 10 nM, respectively. Further, in test [3], the “Potency (rank order of transporter binding)” value is reported as “S > N > D”. Besides, the “Potency Range” value in test [3] is given as 53.
For the molecule `CNCC(c1ccccc1)C(O)c1ccc(Br)cc1` [MCJ001-Br—Ph—OH-SS/RR, (1S,2S/1R,2R)-1-(4-bromophenyl)-3-(methylamino)-2-phenylpropan-1-ol], the Kd in test [1] was found to be 28400 nM; in test [2], 7300 nM.
In the case of `CN(C)CCCN1c2ccccc2CCc2ccccc21` [Imipramine, reference compound], the “Potency (rank order of transporter binding)” value in test [3] was “S > N > D”.
Same read-out and setting: then `CNCC[C@H](Oc1cccc2ccccc12)c1cccs1` [Duloxetine, reference compound], with “S > N > D”.
Turning to `CN(C)C[C@H](c1ccc2ccccc2c1)[C@@H](F)c1ccccc1` [MCJ002-F-RS, (2S,3R)-3-fluoro-N,N-dimethyl-2-(naphthalen-2-yl)-3-phenylpropan-1-amine], the Kd in test [1] was found to be 280 ± 20 nM; in test [2], 7 ± 0.5 nM; in test [4], 45 ± 3 nM. The “Potency (rank order of transporter binding)” value in test [3] is on record as “S > N > D”. Further, the “Potency Range” value in test [3] was found to be 40.
Consider `CNC[C@H](c1ccccc1)[C@@H](O)c1ccc(F)cc1` [MCJ001-F—Ph—OH-RS/SR, (1R,2S)-1-(4-fluorophenyl)-3-(methylamino)-2-phenylpropan-1-ol], for which the Kd was found to be 75200 nM in test [1], 11900 nM in test [2] and 2660 nM in test [4]. Besides, the “Potency (rank order of transporter binding)” value in test [3] is given as “N > S > D”. Also, the “Potency Range” value in test [3] is 28.
With `CCOc1ccccc1OC(c1ccccc1)C1CNCCO1` (stereo not shown) [Reboxetine, reference compound], the “Potency (rank order of transporter binding)” value in test [3] is given as “N > S > D”.
For `CCN(CC)C(=O)C1(c2ccccc2)CC1CN` (stereo not shown) [Milnacipran, reference compound], the “Potency (rank order of transporter binding)” value in test [3] was “S > N > D”.
`CNC[C@H](c1ccc2ccccc2c1)[C@H](O)c1ccccc1` [PRC200-SS, (1S,2S)-3-(methylamino)-2-(naphthalen-2-yl)-1-phenylpropan-1-ol]: the dissociation constant Kd in test [1] was 27 ± 3 nM; in test [2] it was 3.8 ± 0.3 nM; in test [4], 0.6 ± 0.2 nM. In test [3], the “Potency (rank order of transporter binding)” value was “N > S > D”. For the same molecule, in test [3], the “Potency Range” value was 45.
